In paper PMC11079024, “Identification of a family of species-selective complex I inhibitors as potential anthelmintics” (Nature Communications, 2024):
Where “and” joins values, the source holds several entries; their conditions need not be identical. Equal values may be shown once. Read-outs that look alike come from different tables or passages of the source.

Tests used:
[1] = system: ben-1 mutant (ECA882) C. elegans; assay: microbe, parasite or virus in culture; details: Caenorhabditis elegans
Outline: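 L1 larvae (~2 worms/μL in M9) in liquid NGM with 2-fold concentrated E. coli HB101, compound at 1% DMSO, 6 days at 20 °C shaking 165 rpm. Well images scored as summed worm-associated pixels, normalized to DMSO controls; relative viability averaged over at least three biological replicates.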

[2] = molecular target: B. taurus (heart) complex I (Bos taurus, UniProt P03887+P17694+P42026); assay: biochemical; assay type: biochemical; details: for IC50: read-out: B. taurus Complex I IC50
Outline: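 Complex I activity followed as DCIP reduction (600 nm, 30 s reads, 15 min) with 80 μM NADH and 60 μM decylubiquinone in 25 mM KPi pH 7.5 containing 2 μM antimycin A and 2 mM KCN. Freeze-thawed mouse or bovine heart mitochondria at 0.2 mg/mL; initial-rate percent of solvent control, single-point 100 μM or dose-response.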

[3] = read-out: C. elegans (ben-1) Development & Viability Assay LC50
[4] = read-out: C. elegans ben-1(e1880) development/viability
[5] = B. taurus (heart) mitochondria, mean of replicates, read-out: percent (%) in vitro complex I activity relative to solvent control
[6] = B. taurus (heart) mitochondria, single replicate, read-out: percent (%) in vitro complex I activity relative to solvent control
[7] = B. taurus (heart) mitochondria, Mean of replicates, read-out: in vitro complex I activity relative to solvent control
[8] = B. taurus (heart) mitochondria, single replicate, read-out: in vitro complex I activity relative to solvent control

Sequence of B. taurus (heart) complex I (P03887 whole entry): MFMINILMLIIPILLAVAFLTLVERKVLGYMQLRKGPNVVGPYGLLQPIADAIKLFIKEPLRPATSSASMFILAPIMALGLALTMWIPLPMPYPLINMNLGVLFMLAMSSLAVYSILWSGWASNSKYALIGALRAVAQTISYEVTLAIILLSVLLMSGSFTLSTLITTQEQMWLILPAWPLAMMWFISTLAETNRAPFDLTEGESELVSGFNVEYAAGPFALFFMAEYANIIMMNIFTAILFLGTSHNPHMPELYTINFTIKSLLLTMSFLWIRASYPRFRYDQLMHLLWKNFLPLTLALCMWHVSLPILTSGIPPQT
Sequence of B. taurus (heart) complex I (P17694 34-463): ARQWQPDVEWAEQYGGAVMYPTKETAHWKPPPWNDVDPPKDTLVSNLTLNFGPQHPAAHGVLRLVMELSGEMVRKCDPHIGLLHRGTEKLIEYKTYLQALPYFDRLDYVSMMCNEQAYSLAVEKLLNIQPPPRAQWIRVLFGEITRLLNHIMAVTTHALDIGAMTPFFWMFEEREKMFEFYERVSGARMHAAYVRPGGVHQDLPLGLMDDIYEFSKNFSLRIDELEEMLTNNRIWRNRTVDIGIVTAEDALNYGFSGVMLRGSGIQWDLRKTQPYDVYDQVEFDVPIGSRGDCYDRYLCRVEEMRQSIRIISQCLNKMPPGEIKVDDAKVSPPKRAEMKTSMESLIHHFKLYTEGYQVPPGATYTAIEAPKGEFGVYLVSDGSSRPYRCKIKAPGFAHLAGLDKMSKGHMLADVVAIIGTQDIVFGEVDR
Sequence of B. taurus (heart) complex I (P42026 38-216): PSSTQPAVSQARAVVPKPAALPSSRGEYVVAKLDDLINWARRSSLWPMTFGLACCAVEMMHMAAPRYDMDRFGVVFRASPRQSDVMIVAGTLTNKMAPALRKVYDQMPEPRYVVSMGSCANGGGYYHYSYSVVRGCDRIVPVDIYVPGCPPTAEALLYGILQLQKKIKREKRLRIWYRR

SMILES: CCCn1c(COc2ccc(C)cc2)nc2ccccc21 [Compound 6944471]
- Screen "Hit" (L1 wild-type C. elegans; 50 μM, […], hit = relative motility below 0.25 3 hours after removal of KCN): Y (hits were identified as compounds that reduced relative motility below 0.25 (75% reduction))
- Relative Motility (L1 wild-type C. elegans; 50 μM, […], worm motility 3 hours after removal of KCN, relative to DMSO controls, single biological replicate): 0.170
- C. elegans KCN Survival (L1 wild-type C. elegans; Dose 0.2 µM, mean of at least three biological replicates): 0.888
- C. elegans KCN Survival (L1 wild-type C. elegans; Dose 0.39 µM): 0.949
- C. elegans KCN Survival (L1 wild-type C. elegans; Dose 1.56 µM): 1.451
- C. elegans KCN Survival (L1 wild-type C. elegans; Dose 3.13 µM): 0.820
- C. elegans KCN Survival (L1 wild-type C. elegans; Dose 6.25 µM): 0.671
- C. elegans KCN Survival (L1 wild-type C. elegans; Dose 12.5 µM): 0.270
- C. elegans KCN Survival (L1 wild-type C. elegans; Dose 25 µM): 0.341
- C. elegans KCN Survival (L1 wild-type C. elegans; Dose 50 µM): 0.000
- C. elegans KCN Survival (L1 wild-type C. elegans; Dose 100 µM): 0.000
- LC50 [1, 3]: > 1000 µM
- viability at 15.6 µM [1, 4]: 98%
- viability at 31.3 µM [1, 4]: 100%
- viability at 62.5 µM [1, 4]: 100%
- viability at 125 µM [1, 4]: 100%
- viability at 250 µM [1, 4]: 100%
- viability at 500 µM [1, 4]: 62.1%
- viability at 1000 µM [1, 4]: 100%
- LC50 ([1]; read-out: C. elegans ben-1 LC50): > 500 µM
- LC50 ([1]; read-out: C. elegans ben-1 log10 LC50 (converted)): > 500 µM

SMILES: CC(C)Cc1ccc(C(C)c2nc3ccccc3n2C)cc1 (stereo not drawn) [NPD8790]
- remaining activity at 0.125 µM ([2]; 0.125 µM, B. taurus (heart) mitochondria, mean of replicates, read-out: percent (%) in vitro complex I activity relative to solvent control): 101%
- remaining activity at 0.313 µM [2, 5]: 112%
- remaining activity at 0.313 µM [2, 6]: 118%
- remaining activity at 0.625 µM [2, 5]: 103%
- remaining activity at 0.625 µM [2, 6]: 96.1%
- remaining activity at 1.5 µM [2, 5]: 107%
- remaining activity at 3 µM [2, 5]: 104%
- remaining activity at 15 µM [2, 5]: 79.4%
- remaining activity at 37.5 µM [2, 5]: 38%
- remaining activity at 37.5 µM [2, 6]: 38.8%
- remaining activity at 75 µM [2, 5]: 13.6%
- remaining activity at 0.06 µM ([2]; B. taurus (heart) mitochondria, 0.06 µM, Mean of replicates, read-out: in vitro complex I activity relative to solvent control): 103%
- remaining activity at 0.13 µM ([2]; B. taurus (heart) mitochondria, 0.13 µM, Mean of replicates, read-out: in vitro complex I activity relative to solvent control): 101%
- remaining activity at 0.313 µM [2, 7]: 112%
- remaining activity at 0.313 µM [2, 8]: 118%
- remaining activity at 0.625 µM [2, 7]: 103%
- remaining activity at 0.625 µM [2, 8]: 96.1%
- remaining activity at 1.5 µM [2, 7]: 107%
- remaining activity at 3 µM [2, 7]: 104%
- remaining activity at 15 µM [2, 7]: 79.4%
- remaining activity at 37.5 µM [2, 7]: 38%
- remaining activity at 37.5 µM [2, 8]: 38.8%
- remaining activity at 75 µM [2, 7]: 13.6%
- IC50 ([2]; B. taurus heart mitochondria): 27.2 µM
- activity at 0.0001 µM ([2]; B. taurus, dose 0.0001 µM, Mean of replicates, read-out: Complex I activity, dose-response data): 104%
- Complex I activity, dose-response data ([2]; B. taurus, dose 0.0001 µM, individual replicates (Rep)): 106.495 and 102.513 and 108.647
- activity at 0.0001 µM ([2]; B. taurus, dose 0.0001 µM, individual replicates (Rep), read-out: Complex I activity, dose-response data): 97.6%
- activity at 0.0005 µM ([2]; B. taurus, dose 0.0005 µM, Mean of replicates, read-out: Complex I activity, dose-response data): 101%
- Complex I activity, dose-response data ([2]; B. taurus, dose 0.0005 µM, individual replicates (Rep)): 104.650 and 93.657 and 105.597
- activity at 0.0005 µM ([2]; B. taurus, dose 0.0005 µM, individual replicates (Rep), read-out: Complex I activity, dose-response data): 99.4%
- activity at 0.001 µM ([2]; B. taurus, dose 0.001 µM, Mean of replicates, read-out: Complex I activity, dose-response data): 105%
- Complex I activity, dose-response data ([2]; B. taurus, dose 0.001 µM, individual replicates (Rep)): 106.670 and 104.354 and 107.534
- activity at 0.001 µM ([2]; B. taurus, dose 0.001 µM, individual replicates (Rep), read-out: Complex I activity, dose-response data): 103%
- activity at 0.0025 µM ([2]; B. taurus, dose 0.0025 µM, Mean of replicates, read-out: Complex I activity, dose-response data): 104%
- Complex I activity, dose-response data ([2]; B. taurus, dose 0.0025 µM, individual replicates (Rep)): 99.492 and 117.130 and 91.896 and 108.464
- activity at 0.005 µM ([2]; B. taurus, dose 0.005 µM, Mean of replicates, read-out: Complex I activity, dose-response data): 114%
- Complex I activity, dose-response data ([2]; B. taurus, dose 0.005 µM, individual replicates (Rep)): 112.174 and 127.690 and 101.653 and 112.765
- activity at 0.013 µM ([2]; B. taurus, dose 0.013 µM, Mean of replicates, read-out: Complex I activity, dose-response data): 99.8%
- Complex I activity, dose-response data ([2]; B. taurus, dose 0.013 µM, individual replicates (Rep)): 108.528 and 89.880 and 103.599
- activity at 0.013 µM ([2]; B. taurus, dose 0.013 µM, individual replicates (Rep), read-out: Complex I activity, dose-response data): 97.2%
- activity at 0.025 µM ([2]; B. taurus, dose 0.025 µM, Mean of replicates, read-out: Complex I activity, dose-response data): 101%
- Complex I activity, dose-response data ([2]; B. taurus, dose 0.025 µM, individual replicates (Rep)): 88.122 and 92.313 and 109.456
- activity at 0.063 µM ([2]; B. taurus, dose 0.063 µM, Mean of replicates, read-out: Complex I activity, dose-response data): 103%
- Complex I activity, dose-response data ([2]; B. taurus, dose 0.063 µM, individual replicates (Rep)): 101.538 and 112.181 and 91.251 and 105.094
- activity at 0.125 µM ([2]; B. taurus, dose 0.125 µM, Mean of replicates, read-out: Complex I activity, dose-response data): 101%
- Complex I activity, dose-response data ([2]; B. taurus, dose 0.125 µM, individual replicates (Rep)): 111.398 and 110.709 and 87.488 and 92.420
- activity at 0.313 µM ([2]; B. taurus, dose 0.313 µM, Mean of replicates, read-out: Complex I activity, dose-response data): 112%
- Complex I activity, dose-response data ([2]; B. taurus, dose 0.313 µM, individual replicates (Rep)): 118.464 and 105.228 and 106.985
- activity at 0.313 µM ([2]; B. taurus, dose 0.313 µM, individual replicates (Rep), read-out: Complex I activity, dose-response data): 118%
- activity at 0.625 µM ([2]; B. taurus, dose 0.625 µM, Mean of replicates, read-out: Complex I activity, dose-response data): 103%
- Complex I activity, dose-response data ([2]; B. taurus, dose 0.625 µM, individual replicates (Rep)): 106.273 and 97.568 and 112.424
- activity at 0.625 µM ([2]; B. taurus, dose 0.625 µM, individual replicates (Rep), read-out: Complex I activity, dose-response data): 96.1%
- activity at 1.5 µM ([2]; B. taurus, dose 1.5 µM, Mean of replicates, read-out: Complex I activity, dose-response data): 107%
- Complex I activity, dose-response data ([2]; B. taurus, dose 1.5 µM, individual replicates (Rep)): 108.615 and 114.555 and 94.027 and 109.488
- activity at 3 µM ([2]; B. taurus, dose 3 µM, Mean of replicates, read-out: Complex I activity, dose-response data): 104%
- Complex I activity, dose-response data ([2]; B. taurus, dose 3 µM, individual replicates (Rep)): 105.743 and 114.475 and 92.946 and 103.733
- activity at 15 µM ([2]; B. taurus, dose 15 µM, Mean of replicates, read-out: Complex I activity, dose-response data): 79.4%
- Complex I activity, dose-response data ([2]; B. taurus, dose 15 µM, individual replicates (Rep)): 82.876 and 90.607 and 69.676 and 74.384
- activity at 37.5 µM ([2]; B. taurus, dose 37.5 µM, Mean of replicates, read-out: Complex I activity, dose-response data): 38%
- Complex I activity, dose-response data ([2]; B. taurus, dose 37.5 µM, individual replicates (Rep)): 49.756 and 32.716 and 30.663
- activity at 37.5 µM ([2]; B. taurus, dose 37.5 µM, individual replicates (Rep), read-out: Complex I activity, dose-response data): 38.8%
- activity at 75 µM ([2]; B. taurus, dose 75 µM, Mean of replicates, read-out: Complex I activity, dose-response data): 13.6%
- Complex I activity, dose-response data ([2]; B. taurus, dose 75 µM, individual replicates (Rep)): 6.165 and 16.790 and 16.865 and 14.475
- IC50 ([2]; heart mitochondria): 27.2 µM
- Log IC50 B. taurus complex I ([2]; log10 of IC50 in µM, B. taurus mitochondria): 1.43 µM
- LC50 [1, 3]: > 1000 µM
